From patent publication US20250144250A1, “PH-SENSITIVE FLUOROPHORES” (The General Hospital Corporation, priority 2022, published 2025)

System: ID8 cells
Assay: Live-cell labeling and in vitro imaging: cellular uptake of NIR fluorophores
Assay type: cell-based, murine
Details: fluorescence microscopy
Method: FIG. 2 Cellular uptake of pH sensing NIR fluorophores via membrane transporters: In vitro tumor cell uptake of the pH sensing NIR probes under normoxic and hypoxic conditions. Murine cancer cell line ID8 cells were incubated at normoxic or hypoxic conditions (1% O2) for 24 h at 37° C. and then incubated for 30 min in the presence of 0.1 μM NIR probes. (a) Representative fluorescence images of cells are shown. The contrast was normalized across all images. Scale bar=100 μm. (b) Quantitative time-course measurements of the fluorescence intensity in cells. *P<0.05, **P<0.01 by two-way ANOVA followed by Tukey's multiple comparisons test (Normoxia vs. Hypoxia). Error bars show mean #s.d. (c) Inhibition assay of transporters to determine the entry mechanisms in ID8 cells. […] Representative fluorescence images of cells are shown. […] (d) Quantitative measurements of the fluorescence intensity in cells. *P<0.05 by two-way ANOVA followed by Tukey's multiple comparisons test. […]
Live-cell labeling and in vitro imaging: Murine ovarian cancer cells (ID8 cells) were obtained from Dr. Wang's lab in the Vincent Center for Reproductive Biology at Massachusetts General Hospital (MGH). […] Image acquisition and analysis were performed using IPLab software (Scanalytics, Fairfax, VA), and the fluorescent intensity of each cell was measured using ImageJ (National Institutes of Health, Bethesda, MD). […]

Row | SMILES | accumulation in cells
1 | CCN1/C(=C/C=C2\CCCC(/C=C/C3=[N+](CC)c4ccccc4C3(C)C)=C2c2ccccc2)C(C)(C)c2ccccc21 [PH03, 1-Ethyl-2-((E)-2-((E)-6-(2-((E)-1-ethyl-3,3-dimethylindolin-2-ylidene)ethylidene)-3,4,5,6-tetrahydro-[1,1′-biphenyl]-2-yl)vinyl)-3,3-dimethyl-3H-indol-1-ium iodide] | time-dependent manner
2 | CCN1/C(=C/C=C2\CCCC(/C=C/C3=[N+](CC)c4ccccc4C3(C)C)=C2N2CCNCC2)C(C)(C)c2ccccc21 [PH08] | time-dependent manner
